Results taken from article PMC4719211, “Comparative Pharmacokinetics of three major bioactive components in rats after oral administration of Typhae Pollen-Trogopterus Feces drug pair before and after compatibility” (DARU Journal of Pharmaceutical Sciences, 2016).

Experiment: Pharmacokinetic study in rats after oral administration of Typhae Pollen / Typhae Pollen-Trogopterus Feces decoctions (plasma, UPLC-TQ/MS)
Format: in vivo, female Sprague–Dawley (SD) rats
Conditions: n = 6, noncompartment model; for Cmax / Tmax / half-life: female, Sprague-Dawley, rat, po; for AUC0~t: rat plasma
Procedure: An ACQUITY UPLC BEH C18 column (2.1 mm × 100 mm, 1.7 μm, Waters Corp., Milford, MA, USA) was applied and the column temperature was maintained at 35 °C. The mobile phase was composed of A (0.1 % aqueous formic acid) and B (acetonitrile) using a gradient elution of 5–10 % B at 0–1 min, 10–30 % B at 1–6 min, 30–40 % B at 6–7 min, 40–95 % B at 7–8 min, 95–5 % B at 8–9 min, […] with a flow rate set at 0.4 mL/min. The auto-sampler was conditioned at 4 °C and the injection volume was 5 μL.
Mass spectrometry detection was performed by using a Xevo Triple Quadrupole MS (Waters Corp., Milford, MA) equipped with an electrospray ionization source (ESI). The ESI source was set in positive ionization mode. The scanning mode was set multiple reaction monitoring (MRM) mode. Parameters set in the source were as follows: the capillary voltage at 1 kV; sampling cone voltage of 30 V; source temperature […]; desolvation temperature 550 °C; dwell time was automatically set by MassLynx (Waters Corp., Milford, MA, USA).
A 200 μL aliquot of plasma sample was added with 10 μL diphenhydramine hydrochloride working solution and 600 μL of methanol. After vortex for 2 min and centrifugation at 13,000 rpm for 10 min, the supernatant was transferred to another 1.5 mL tube and concentrated in the centrifuge enrichment apparatus at 37 °C.
Finally, each residue was reconstituted in 200 μL 70 % methanol, then vortexed for 3 min and centrifuged at 13,000 rpm for 10 min. 5 μL of supernatant was injected into the UPLC-TQ/MS system for analysis.
All experiments were performed on female Sprague–Dawley (SD) rats, weighing 220–250 g, obtained from Shanghai Slac Laboratory Animal Co., Ltd. (Shanghai, China). They were kept in plastic cages at 22 ± 2 °C and a relative humidity of 50–65 %, with free access to pellet food and water on a 12 h light/dark cycle. Animal welfare and experimental procedures strictly conformed to the Guide for the Care and Use of Laboratory Animals and the related ethics regulations of Nanjing University of Chinese Medicine.
For pharmacokinetic studies, the SD rats were divided into four groups randomly (n = 6 per group), and housed with unlimited access to food before the experiment while water available. Each group except the control group was oral administration of TP (CN) single drug decoction, TP-TF co-decoction (CM) and TP-TF mixed decoction (CB) at a dosage of 5 g/kg, 10 g/kg, 10 g/kg body weight, respectively. Blood samples (0.5 mL) were collected at certain time points and placed at a 1.5 mL tube before oral (0 min) and after oral (5, 15, 30, 45, 60, 120, 240, 360, 480, 720 and 1440 min) administration. Afterwards all the blood samples were centrifuged at 13,000 rpm for 10 min and stored at −80 °C until analysis.
The mean plasma concentration-time profiles of typhaneoside, vanillic acid and p-coumaric acid were determined after oral administration with different compatibility of Typhae Pollen-Trogopterus Feces drug pair in rats, the concentration-time curves are presents in Fig. 3, and the noncompartment model pharmacokinetic parameters including maximum plasma concentration (Cmax), time to reach the maximum concentrations (Tmax), half-time (T1/2), area under concentration-time curve (AUC 0~t) are summarized in Table 2.

[1] = plasma, 5 g/kg, oral TP single drug decoction (CN)
[2] = plasma, 10 g/kg, oral TP-TF co-decoction (CM)
[3] = plasma, 10 g/kg, oral TP-TF mixed decoction (CB)
[4] = oral TP single drug decoction (CN), 5 g/kg
[5] = oral TP-TF co-decoction (CM), 10 g/kg
[6] = oral TP-TF mixed decoction (CB), 10 g/kg
[7] = in vivo, 5 g/kg, oral TP single drug decoction (CN)
[8] = in vivo, 10 g/kg, oral TP-TF co-decoction (CM)
[9] = in vivo, 10 g/kg, oral TP-TF mixed decoction (CB)

Row | Cmax [1] [ng/mL] | Tmax [1] [h] | half-life [1] [h] | Cmax [2] [ng/mL] | Tmax [2] [h] | half-life [2] [h] | Cmax [3] [ng/mL] | Tmax [3] [h] | half-life [3] [h] | AUC0~t [4] [ng/h/mL] | AUC0~t [5] [ng/h/mL] | AUC0~t [6] [ng/h/mL] | SMILES | also measured
1 | 2210 ± 1190 | 1.25 ± 0.71 | 3.69 ± 0.87 | 3870 ± 2530 | 1.47 ± 3.2 | 11.2 ± 13.6 | 1450 ± 501 | 0.17 ± 0.09 | 8.88 ± 3.76 | 10445.53 ± 4148.68 | 14137.57 ± 4540.37 | 6193.78 ± 4499.17 | COc1cc(C(=O)O)ccc1O [Vanillic acid, vanillic acid] | –
2 | 4900 ± 1890 | 1.08 ± 1.67 | 3.67 ± 1.82 | 5110 ± 3670 | 1.42 ± 1.39 | 10.1 ± 7.86 | 4190 ± 844 | 0.46 ± 0.4 | 10.1 ± 10.2 | 36881.01 ± 25783.25 | 41512.56 ± 41763.28 | 17689.11 ± 3882.21 | O=C(O)/C=C/c1ccc(O)cc1 [P-coumaric acid, p-coumaric acid] | –

Row | SMILES | Cmax [1] [ng/mL] | Tmax [1] [h] | half-life [1] [h] | Cmax [2] [ng/mL] | Tmax [2] [h] | half-life [2] [h] | Cmax [3] [ng/mL] | Tmax [3] [h] | half-life [3] [h] | AUC0~t [4] [ng/h/mL] | AUC0~t [5] [ng/h/mL] | AUC0~t [6] [ng/h/mL] | also measured
3 | COc1cc(-c2oc3cc(O)cc(O)c3c(=O)c2O[C@@H]2O[C@H](CO[C@@H]3O[C@@H](C)[C@H](O)[C@@H](O)[C@H]3O)[C@@H](O)[C@H](O)[C@H]2O[C@@H]2O[C@@H](C)[C@H](O)[C@@H](O)[C@H]2O)ccc1O [Typhaneoside, typhaneoside] | – | – | – | – | – | – | – | – | – | 268.31 ± 167.71 | 333.46 ± 191.84 | 275.62 ± 206.06 | Cmax [7]: 76.4 ± 53.2 ng/mL; Tmax [7]: 2.95 ± 2.88 h; half-life [7]: 3.35 ± 2.58 h; Cmax [8]: 371 ± 316 ng/mL; Tmax [8]: 0.24 ± 0.15 h; half-life [8]: 1.91 ± 1.26 h; Cmax [9]: 214 ± 73.7 ng/mL; Tmax [9]: 0.21 ± 0.08 h; half-life [9]: 1.37 ± 0.54 h
